# Laboratory results from BindingDB's records for doi:10.1021/ja050122x (Yale University, 2005).
# Target: Bcl-2-like protein 1 (Homo sapiens, UniProt Q07817)
# Assay: Fluorescence Polarization Assay
# Details: pH 7.4; 25 °C
# Experimental: Fluorescence polarization experiments were conducted on a Photon Technology International instrument using a 0.3 cm path length cuvette. Spectra were measured at 25 deg C using 10.0 nm slit widths. Excitation at 495 nm was used for the fluorescein-containing peptide Fl-Bak and the emission maximum at 535 nm was monitored. Polarization measurements were recorded upon titration of inhibitors at varying concentrations into a solution of Fl-Bak and Bcl-xL. Regression analysis was carried out using SigmaPlot 2001 (Systat Co.) ligand binding macro module. Experimental data were fitted to determine the IC50 values, which can be related to the known affinity of the 16-mer Bak peptide (Kd =120 nM) to acquire the inhibitory constant Ki.
# Bcl-2-like protein 1, sequence (Q07817 whole entry): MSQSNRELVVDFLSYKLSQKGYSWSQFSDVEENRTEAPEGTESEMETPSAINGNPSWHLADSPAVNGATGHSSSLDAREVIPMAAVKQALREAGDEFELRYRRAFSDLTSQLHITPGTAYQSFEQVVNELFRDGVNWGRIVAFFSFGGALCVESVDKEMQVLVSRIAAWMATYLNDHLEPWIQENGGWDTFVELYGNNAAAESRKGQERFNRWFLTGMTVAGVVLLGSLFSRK
row,Compound,Ki [µM]
1,CCc1cc(-c2ccc(OCC(=O)O)cc2C(C)C)ccc1-c1cccc(Cc2cccc3ccccc23)c1,6.88
2,"CC(C)Cc1cc(-c2ccc(-c3ccc(CCC(=O)O)cc3CC(C)C)cc2Cc2cccc3ccccc23)ccc1OCC(=O)O [terphenyl scaffold, 14]",0.114
3,"CC(C)Cc1cc(-c2ccc(-c3ccc(CCC(=O)O)cc3CC(C)C)cc2C(C)C)ccc1OCC(=O)O [terphenyl scaffold, 15]",2.09
4,"CC(C)Cc1cc(CCC(=O)O)ccc1-c1ccc(-c2ccc(OCC(=O)O)c(Cc3cccc4ccccc34)c2)c(CC(C)C)c1 [terphenyl scaffold, 19]",2.7
5,"COC(=O)CCc1ccc(-c2ccc(-c3ccc(OCC(=O)OC)cc3)cc2)cc1 [terphenyl scaffold, 22]",> 30
6,"CC(C)Cc1cc(-c2ccc(-c3ccc(CCCN)cc3CC(C)C)cc2C(C)C)ccc1OCCN [terphenyl scaffold, 24]",13.6
7,"Cc1cccc(-c2ccc(-c3ccc(OCC(=O)O)cc3C)cc2C)c1 [terphenyl scaffold, 25]",18.2
8,"Cc1cc(OCC(=O)O)ccc1-c1ccc(-c2cccc(C(C)C)c2)c(C)c1 [terphenyl scaffold, 26]",10.4
9,"CC(C)Cc1cc(OCC(=O)O)ccc1-c1ccc(-c2cccc(C(C)C)c2)c(CC(C)C)c1 [terphenyl scaffold, 27]",4.82
10,"CCc1cc(-c2ccc(OCC(=O)O)cc2C(C)C)ccc1-c1cccc(Cc2ccccc2)c1 [terphenyl scaffold, 28]",3.27
11,"O=C(O)COc1ccc(-c2ccc(-c3ccccc3)cc2)cc1 [terphenyl scaffold, 30]",> 30

# Next, values leading:
row,Ki [µM],Compound
1,1.82,"CC(C)Cc1cc(-c2ccc(-c3ccc(CCC(=O)O)cc3CC(C)C)cc2Cc2ccccc2)ccc1OCC(=O)O [terphenyl scaffold, 16]"
2,2.5,"CC(C)Cc1cc(-c2ccc(-c3ccc(CCC(=O)O)cc3CC(C)C)cc2Cc2ccc3ccccc3c2)ccc1OCC(=O)O [terphenyl scaffold, 17]"
3,2.73,"CC(C)Cc1cc(CCC(=O)O)ccc1-c1ccc(-c2ccc(OCC(=O)O)c(Cc3ccccc3)c2)c(Cc2ccccc2)c1 [terphenyl scaffold, 18]"
4,2.34,"Cc1cc(CCC(=O)O)ccc1-c1cc(C)c(-c2ccc(OCC(=O)O)c(Cc3ccccc3)c2)c(C)c1 [terphenyl scaffold, 20]"
5,> 30,"Cc1cc(CCC(=O)O)ccc1-c1cc(C)c(-c2ccc(OCC(=O)O)c(Cc3ccccc3)c2)c(CCC(=O)O)c1 [terphenyl scaffold, 21]"
